Patent EP1129097B1, “NOVEL TYPE CONDENSED PYRIDAZINONE COMPOUNDS” (GYOGYSZERKUTATO INTEZET KFT., priority 1998, dated 2000)

What was measured:
AMPA = experiment: AMPA-induced spreading depression of chick retina; conditions: concentration of 20 µM
Procedure: The AMPA antagonistic effect of the compounds was also tested on spreading depression of chick retina (Sheardown, M. J.: Brain Res., 1993, 607, 189) in a concentration of 20 µM.

[1] = tested on: scopolamine-induced memory-deficit in rats; experiment: passive avoidance test, counter-balancing scopolamine-induced memory-deficit; assay type: in vivo; conditions: oral doses of 50 mg/kg
Procedure: The memory-enhancing effect of the compounds according to the invention was measured by counter-balancing the scopolamine-induced memory-deficit in rats, with oral doses of 50 mg/kg, in the passive avoidance test published by Cumin, R. et al. [Psychopharmacology, 78, 104 (1982)].

Row | Compound | Antagonistic effect on AMPA-induced spreading depression (%) (AMPA) | Memory improvement compared to amnesic control (%) [1] [%]
1 | Cn1ncc2c(c1=O)SCCNC2C(=O)c1ccccc1 (stereo not shown) [Example 3, 5-Benzoyl-8-methyl-2,3,4,5-tetrahydro-9(8H)-pyridazino[4,5-b][1,5]thiazepinone] | 10 | 100
2 | O=c1c2c(cnn1CC=Cc1ccccc1)N(Cc1ccccc1)CCCO2 [Example 7, 5-Benzyl-8-cynnamyl-2,3,4,5-tetrahydro-9(8H)-pyridazino[4,5-b] [1,5]oxazepinone] | 16 | 250
